Here are results for 12 compounds from ChEMBL document CHEMBL5338757, “Phototunable Cell Killing by Photochromic Diarylethene of Thiazoyl and Thienyl Derivatives” (J Med Chem, 2023).

Activity calls are given as the source filed them. The calls are words filed in the database; no cut-off is given here.

Assay [1] deals with DNA. Briefly: Binding affinity to DNA (unknown origin) at 15 uM with 436 nm blue light irradiation incubated for 24 hrs by fluorescence based assay. In kind it is nucleic-acid assay.
For assay [2], the system named is HeLa. Kind of assay: Phototoxicity against human HeLa cells assessed as BAK activation at 1 ppm with 365 and 436 nm light irradiation by Western blot analysis. It is filed as functional, cell-based. A general note: Immunoblotting shows a protein as a band on a membrane.
Assay [3] deals with HeLa. Kind of assay: Phototoxicity against human HeLa cells assessed as cell death at 0.5 ppm preincubated for 1 day followed by UV irradiation for 20 sec. In kind it is functional, cell-based. The conditions noted are these: time 86420.0 sec.
In assay [4] the test system is HeLa. Kind of assay: Phototoxicity against human HeLa cells assessed as cell death at 0.02 to 5 ppm preincubated for 18 hrs under dark condition followed by medium replacement and 436 nm blue light irradiation for 2 mins and measured after 2 hrs by microscopic analysis. It is filed as functional, cell-based. The note with it: dose 0.02-5 ppm, time 20.03 hrs.
For assay [5], the system named is DNA. Kind of assay: Binding affinity to DNA (unknown origin) in aqueous media at 15 uM at 436 nm blue light irradiation incubated for 24 hrs by fluorescence based assay. It is filed as nucleic-acid assay.
The subject of assay [6] is DNA. Briefly: Binding affinity to DNA (unknown origin) upto 25 uM incubated for 24 hrs in presence of ethidium bromide by […]. It is filed as nucleic-acid assay.
The subject of assay [7] is DNA. Kind of assay: Binding affinity to DNA (unknown origin) in aqueous media at 15 uM with 436 nm blue light irradiation incubated for 24 hrs by CD spectra analysis. In kind it is nucleic-acid assay.
Assay [8] deals with HeLa. Briefly: Phototoxicity against human HeLa cells assessed as BAX activation at 1 ppm with 365 and 436 nm light irradiation by Western blot analysis. It is filed as functional, cell-based.
Assay [9] deals with HeLa. Briefly: Phototoxicity against human HeLa cells assessed as gamma-H2AX activation at 1 ppm with 365 and 436 nm light irradiation by Western blot analysis. In kind it is functional, cell-based.
For assay [10], the system named is DNA. Kind of assay: Binding affinity to DNA (unknown origin) assessed as redshift in absorption maxima at 15 uM with […] blue light irradiation incubated for 24 hrs by fluorescence based assay. In kind it is nucleic-acid assay.
Assay [11] deals with HeLa. Briefly: Phototoxicity against human HeLa cells assessed as ATM kinase activation at 1 ppm with 365 and 436 nm light irradiation by Western blot analysis. It is filed as functional, cell-based.
In assay [12] the test system is HeLa. Briefly: Phototoxicity against human HeLa cells assessed as cleaved caspase-3 activation at 1 ppm with 365 and 436 nm light irradiation by Western blot analysis. In kind it is functional, cell-based. The note with it: time 18.0 hrs.
For assay [13], the system named is DNA. Kind of assay: Binding affinity to DNA (unknown origin) in aqueous media at 15 uM with > 546 nm blue light irradiation incubated for 24 hrs by CD spectra analysis. In kind it is nucleic-acid assay.
In assay [14] the test system is HeLa. Briefly: Phototoxicity against human HeLa cells assessed as cell death at 5 ppm incubated for 18 hrs followed by medium replacement and 436 nm blue light irradiation for 2 mins and measured after 2 hrs by microscopic analysis. The conditions noted are these: time 20.03 hrs. It is filed as functional, cell-based.
Assay [15] concerns HeLa. Kind of assay: Phototoxicity against human HeLa cells assessed as cell death at 0.05 ppm incubated for 18 hrs followed by medium replacement and 436 nm blue light irradiation for 2 mins and measured after 2 hrs by microscopic analysis. In kind it is functional, cell-based.
The subject of assay [16] is HeLa. Briefly: Phototoxicity in human HeLa cells assessed as cell damage at 0.2 ppm irradiated with 546 nm green light. In kind it is functional, cell-based.
Assay [17] concerns HeLa. Briefly: Phototoxicity against human HeLa cells assessed as BAK activation at 0.1 ppm with 436 nm blue light irradiation by Western blot analysis. In kind it is functional, cell-based. The note with it: time 20.03 hrs.
In assay [18] the test system is HeLa. Kind of assay: Phototoxicity in human HeLa cells assessed as cell damage at 0.2 ppm pre-irradiated with 546 nm green light followed by 436 nm blue light irradiation. It is filed as functional, cell-based.
Assay [19] concerns HeLa. Kind of assay: Phototoxicity against human HeLa cells assessed as ATM kinase activation at 0.1 ppm with 436 nm blue light irradiation by Western blot analysis. In kind it is functional, cell-based. The note with it: time 20.03 hrs.
For assay [20], the system named is HeLa. Kind of assay: Phototoxicity against human HeLa cells assessed as CHK1 activation at 0.1 ppm with 436 nm blue light irradiation by Western blot analysis. In kind it is functional, cell-based. The conditions noted are these: time 20.03 hrs.
Assay [21] deals with HeLa. Kind of assay: Phototoxicity against human HeLa cells assessed as cell rounding at 1 nM preincubated for 18 hrs under dark condition followed by medium replacement and 436 nm blue light irradiation for 2 mins and measured after 2 hrs by microscopic analysis. The note with it: time 20.03 hrs. In kind it is functional, cell-based.
Assay [22] has as its system HeLa. Briefly: Phototoxicity against human HeLa cells assessed as gamma-H2AX activation at 0.1 ppm with 436 nm blue light irradiation by Western blot analysis. In kind it is functional, cell-based. The note with it: time 20.03 hrs.
The subject of assay [23] is HeLa. Briefly: Phototoxicity against human HeLa cells assessed as caspase-3 activation at 0.1 ppm with 436 nm blue light irradiation by Western blot analysis. In kind it is functional, cell-based. The conditions noted are these: time 20.03 hrs.
For assay [24], the system named is HeLa. Kind of assay: Phototoxicity against human HeLa cells assessed as cell shrinkage at 1 nM preincubated for 18 hrs under dark condition followed by medium replacement and 436 nm blue light irradiation for 2 mins and measured after 2 hrs by microscopic analysis. It is filed as functional, cell-based. The note with it: time 20.03 hrs.
Assay [25] concerns HeLa. Briefly: Phototoxicity against human HeLa cells assessed as activation of BAX multiplication at 0.1 ppm with 436 nm blue light irradiation by Western blot analysis. It is filed as functional, cell-based.
The subject of assay [26] is HeLa. Briefly: Phototoxicity against human HeLa cells assessed as BAX activation at 0.1 ppm with 436 nm blue light irradiation by Western blot analysis. In kind it is functional, cell-based. The note with it: time 20.03 hrs.
The test system of assay [27] is HeLa. Briefly: Phototoxicity against human HeLa cells assessed as CHK2 activation at 0.1 ppm with 436 nm blue light irradiation by Western blot analysis. In kind it is functional, cell-based. The conditions noted are these: time 20.03 hrs.

In the case of `Cc1sc(-c2ccccc2)nc1C1=C(c2nc(-c3ccccc3)sc2C)C(F)(F)C(F)(F)C1(F)F`, the outcome in the assay on DNA [1], in the assay with DNA [5], with DNA [7] and with DNA [10] was Active. For the same compound, the result in the assay on HeLa [2], in the assay on HeLa [3], in the assay with HeLa [4], with HeLa [8], with HeLa [9] and with HeLa [11] was inactive. For the same compound, the result in the assay with HeLa [12] and with DNA [13] was inactive. The KSV in the assay on DNA [6] was 1.6 10^3/M.
For the compound `Cc1sc(-c2ccccc2)cc1C1=C(c2nc(-c3ccccc3)sc2C)C(F)(F)C(F)(F)C1(F)F`, the result with DNA [1] and in the assay with DNA [10] was Active. Moreover, the KSV in the assay with DNA [6] was 1.6 10^3/M.
Consider `C[C@]12SC(c3ccccc3)=CC1=C1C(=C3N=C(c4ccccc4)S[C@@]32C)C(F)(F)C(F)(F)C1(F)F`, for which the outcome with DNA [1], with HeLa [4] and with DNA [10] was Active. The KSV in the assay with DNA [6] is 27 10^3/M.
On to `Cc1cc(-c2ccccc2)sc1C1=C(c2sc(-c3ccccc3)cc2C)C(F)(F)C(F)(F)C1(F)F`, for which the result in the assay on HeLa [14] was inactive.
In the case of `Cc1sc(-c2ccccc2)cc1C1=C(c2cc(-c3ccccc3)sc2C)C(F)(F)C(F)(F)C1(F)F`, the result in the assay with DNA [1] was Active. Further, the result in the assay on HeLa [4] and with DNA [10] was inactive. Besides, the KSV in the assay on DNA [6] is 1.6 10^3/M.
Consider `CC12N=C(c3ccccc3)SC1=C1C(=C3SC(c4ccccc4)=NC32C)C(F)(F)C(F)(F)C1(F)F` (stereo not given), for which the result in the assay on HeLa [15] was Active.
As for `CC12C=C(c3ccccc3)SC1=C1C(=C3SC(c4ccccc4)=NC32C)C(F)(F)C(F)(F)C1(F)F` (stereo not given), the outcome in the assay with HeLa [15] was Active.
For `Cc1nc(-c2ccccc2)sc1C1=C(c2sc(-c3ccccc3)nc2C)C(F)(F)C(F)(F)C1(F)F`, the outcome in the assay on HeLa [14] was inactive.
For the compound `CC12C=C(c3ccccc3)SC1=C1C(=C3SC(c4ccccc4)=CC32C)C(F)(F)C(F)(F)C1(F)F` (stereo not given), the outcome with HeLa [15] was Active.
For the compound `Cc1cc(-c2ccccc2)sc1C1=C(c2sc(-c3ccccc3)nc2C)C(F)(F)C(F)(F)C1(F)F`, the result with HeLa [14] was inactive.
Regarding `CC12SC(c3ccccc3)=NC1=C1C(=C3N=C(c4ccccc4)SC32C)C(F)(F)C(F)(F)C1(F)F` (stereo not given), the result with HeLa [16], in the assay on HeLa [17], in the assay with HeLa [18], in the assay with HeLa [19], in the assay with DNA [1] and in the assay with HeLa [20] was Active. The result with HeLa [21], in the assay with HeLa [4], in the assay on HeLa [22], in the assay on HeLa [23], in the assay on HeLa [24] and in the assay on HeLa [25] was Active. Besides, the result in the assay on DNA [10], in the assay on HeLa [26] and in the assay on HeLa [27] was Active. Besides, the KSV in the assay on DNA [6] was 27 10^3/M.
As for `CC12SC(c3ccccc3)=CC1=C1C(=C3C=C(c4ccccc4)SC32C)C(F)(F)C(F)(F)C1(F)F` (stereo not given), the outcome in the assay with DNA [1] was Active. The result in the assay on HeLa [4] and with DNA [10] was inactive. For the same compound, the KSV with DNA [6] is 27 10^3/M.
